In patent US20020028938A1, “Prostaglandin endoperoxide H synthase biosynthesis inhibitors” (priority 1997, published 2002):

What was measured:
[1] = target: T1, recombinant human Cox-1 (r-hu Cox1) (Homo sapiens, UniProt P23219); assay: Recombinant human PGHS-1 enzyme assay (RHUCX1); assay type: biochemical; settings: for inhibition at 100 µM: read-out: RHUCX1 % Inh. at Dose
T1 construct: made in house; host or cells: baculovirus/Sf9 insect cells (microsomes)
Outline: (§1)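 PGE2 formed with and without drug quantified by EIA against matrix-matched standards; percent inhibition relative to control mean, IC50 by linear regression.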

[2] = target: T2, recombinant human Cox-2 (r-hu Cox-2) (Homo sapiens, UniProt P35354); assay: Recombinant human PGHS-2 enzyme assay (RHUCX2); assay type: biochemical; settings: for IC50: read-out: RHUCX2 IC50 (parenthetical value)
T2 construct: made in house; host or cells: baculovirus/Sf9 insect cells (microsomes)
T2 sequence (P35354 18-604): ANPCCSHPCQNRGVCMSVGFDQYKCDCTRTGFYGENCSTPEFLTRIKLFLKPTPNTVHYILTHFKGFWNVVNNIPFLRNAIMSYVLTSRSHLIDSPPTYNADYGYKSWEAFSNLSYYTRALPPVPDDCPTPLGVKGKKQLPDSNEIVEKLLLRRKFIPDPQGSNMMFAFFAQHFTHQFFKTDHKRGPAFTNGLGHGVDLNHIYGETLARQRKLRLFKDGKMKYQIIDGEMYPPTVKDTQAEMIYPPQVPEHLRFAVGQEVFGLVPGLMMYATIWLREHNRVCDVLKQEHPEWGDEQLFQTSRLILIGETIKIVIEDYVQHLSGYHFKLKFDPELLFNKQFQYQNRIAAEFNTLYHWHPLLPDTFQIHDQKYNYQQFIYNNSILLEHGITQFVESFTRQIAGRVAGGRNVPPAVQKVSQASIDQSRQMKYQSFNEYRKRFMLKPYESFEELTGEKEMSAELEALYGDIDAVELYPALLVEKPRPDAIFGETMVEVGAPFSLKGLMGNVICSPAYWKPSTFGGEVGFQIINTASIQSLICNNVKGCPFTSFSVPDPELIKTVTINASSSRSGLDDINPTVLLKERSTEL
Outline: as §1

[3] = target: T3, Cox-1 in Monocyte U937 cells (Homo sapiens, UniProt P23219); assay: Monocyte U937 cell Cox-1 assay; assay type: cell-based; settings: U-937; 1 μM; read-out: U937 % Inhib. at Dose
T3 construct: endogenous in cells; host or cells: U937 monocyte cells (ATCC)
T3 sequence (P23219 24-599): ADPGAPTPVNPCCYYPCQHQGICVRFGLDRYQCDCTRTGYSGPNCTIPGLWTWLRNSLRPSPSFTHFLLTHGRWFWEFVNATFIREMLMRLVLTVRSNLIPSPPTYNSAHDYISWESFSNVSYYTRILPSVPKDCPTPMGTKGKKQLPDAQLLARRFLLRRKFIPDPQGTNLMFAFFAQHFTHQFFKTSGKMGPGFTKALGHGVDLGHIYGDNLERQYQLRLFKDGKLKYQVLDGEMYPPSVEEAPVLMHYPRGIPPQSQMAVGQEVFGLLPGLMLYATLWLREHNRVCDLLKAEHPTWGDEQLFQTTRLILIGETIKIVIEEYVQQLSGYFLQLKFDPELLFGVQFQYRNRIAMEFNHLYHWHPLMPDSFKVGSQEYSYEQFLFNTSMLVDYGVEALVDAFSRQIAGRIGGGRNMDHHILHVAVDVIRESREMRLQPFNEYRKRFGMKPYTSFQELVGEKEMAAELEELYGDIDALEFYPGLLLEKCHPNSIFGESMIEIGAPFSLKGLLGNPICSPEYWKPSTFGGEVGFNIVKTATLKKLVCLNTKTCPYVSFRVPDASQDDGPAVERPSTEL
Method: Human amnionic WISH cells were grown to 80% confluence in 48 well plates. Following removal of the growth medium and two washings with Geys Balanced Salt Solutn, 5 ng IL-1β /ml (UBI, Lake Placid, N.Y.) was added to the cells with or without test compound in DMSO (0.01% v/v) in Neuman-Tytell Serumless Medium (GIBCO, Grand Island, N.Y.). Following an 18 hour incubation to allow for the maximal induction of PGHS-2, the conditioned medium was removed and assayed for PGE2 content by EIA analysis as described above.
Monocyte U937 (ATCC, Rockville, Md.) cells were grown in a similar fashion to the WISH cells. After incubation, the conditioned medium was removed and assayed for […] by EIA analysis as described above.

[4] = target: T4, human amnionic whole cell cyclooxygenase-2 (WISH cells) (Homo sapiens, UniProt P35354); assay: IL-1β induced PGE2 production in WISH cells; assay type: cell-based; settings: read-out: Wish IC50 (parenthetical value)
T4 construct: endogenous in cells; host or cells: human amnionic WISH cells, induced with IL-1beta
T4 sequence (P35354 18-604): T2 sequence (P35354 18-604)
Outline: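 Confluent (80%) WISH cells were stimulated with 5 ng/ml IL-1β in serum-free Neuman-Tytell medium, with or without test compound in DMSO (0.01% v/v). PGE2 in the culture medium was measured by EIA against standards prepared in the same medium, read by optical density.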

[5] = target: T5, Human Whole Platelet Cyclooxygenase-1 (Homo sapiens, UniProt P23219); assay: Human Whole Platelet Cyclooxygenase-1 assay (HWPX); assay type: cell-based; settings: read-out: HWPX IC50 (parenthetical value)
T5 construct: from tissue; host or cells: human blood: isolated platelets (A4) or heparinised whole blood (A9)
T5 sequence (P23219 24-599): as above
Outline: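 Washed platelets from healthy-donor ACD blood were pre-incubated with compound for 10 min, then stimulated with calcium ionophore A23187 (8.8 μM final) for 10 min. Reaction stopped with cold 6 mM EDTA; thromboxane in supernatants quantified with a commercial kit.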

[6] = test system: carrageenan induced paw edema; assay: Carrageenan induced paw edema (CPE) in rats; assay type: in vivo; settings: rat
Outline: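 Male Sprague-Dawley rats (170–190 g) dosed orally in PEG 400, 1 h before subplantar 0.1 ml 1% lambda carrageenan in right hindpaw. Plethysmographic paw volume at 0 and 3 h; edema as difference, % inhibition versus control mean (±SEM), Dunnett's test, ED50 by linear regression.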

[7] = test system: air pouch prostaglandin biosynthesis (Cox-2); assay: Carrageenan induced air pouch prostaglandin biosynthesis model (CAP); assay type: in vivo, rat; settings: for ED50: Rattus norvegicus
Outline: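 Male Sprague Dawley rats with dorsal air pouches (20 mL air day 0, 10 mL day 3) received 0.2% lambda carrageenan in saline into the pouch on day 7. Compounds dosed at 0.1 to 10 mg/kg 30 min before carrageenan; pouch lavaged 4 h later, prostaglandins measured by EIA. Percent inhibition versus control mean; ED50 by linear regression.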

Human whole blood Cox-1 = target: T6, Human whole blood Cox-1 (Homo sapiens, UniProt P23219); assay: Human whole blood assay Cyclooxygenase-1; assay type: cell-based
T6 construct: from tissue; host or cells: human blood: isolated platelets (A4) or heparinised whole blood (A9)
T6 sequence (P23219 24-599): as above
Method: Heparin anticoagulated blood was incubated with drugs dissolved in DMSO. The samples are incubated at 37 degrees Celsius for 4.5 hours after which calcium ionophore at a final concentration of 30 μM was added and the mixture allowed to incubate for 30 minutes. The reaction was stopped with the addition of EGTA and cold methanol (50% final concentration). After 18 hours at −70 degrees Celsius, the plates were centrifuged and supernatants analyzed for TXB2.

Human whole blood Cox-2 = target: T7, Human whole blood Cox-2 (Homo sapiens, UniProt P35354); assay: Human whole blood assay Cyclooxygenase-2; assay type: cell-based
T7 construct: from tissue; host or cells: heparinised human whole blood stimulated with E. coli LPS
T7 sequence (P35354 18-604): T2 sequence (P35354 18-604)
Method: Heparin anticoagulated blood was incubated with drugs dissolved in DMSO. The samples are incubated at 37 degrees Celsius for 15 minutes. E. coli lipopolysaccaride (LPS) 5 μg/ml dded and the samples incubated for 5 hours. The reaction was stopped with the addition of EGTA and cold methanol (50% final concentration). After 18 hours at −70 degree Celsius, the plates were centrifuged and supernatants analyzed for TXB2.

[8] = Pharmacokinetic profile (plasma concentration, half life, AUC); assay type: in vivo, Rat

T1 sequence (P23219 24-599): as above

Compound	inhibition at 100 µM [1]	inhibition at 0.01 µM ([2]; 0.01 μM, read-out: RHUCX2 % Inh. at Dose)	inhibition at 0.1 µM ([2]; 0.1 μM, read-out: RHUCX2 % Inh. at Dose)	inhibition at 1 µM [3]	IC50 [4]	melting point	IC50 [2]	IC50 [5]	CPE ED30 ([6]; oral)	inhibition in vivo at 3 mg/kg ([7]; 4 h, 3 mpk, rat, read-out: CAP % Inhib. @ 3 mpk)	ED50 [7]	IC50 (Human whole blood Cox-1)	IC50 (Human whole blood Cox-2)	half-life ([8]; Rat IV (3mg/kg))	AUC ([8]; rat)	concentration at 14 day ([8]; rat, oral, based on 10 mg/kg dosage, read-out: 14 day plasma micromolar concentration)	IC50 ([1]; read-out: RHUCX1 IC50 (parenthetical value))	inhibition in vivo at 10 mg/kg ([6]; 10 mpk oral, 3 hours after carrageenan, read-out: CPE % Inhib. @ 10 mpk)	inhibition at 30 µM (Human whole blood Cox-1; 30 micromolar)	inhibition at 0.03 µM (Human whole blood Cox-2; 0.03 micromolar)
CS(=O)(=O)c1ccc(-c2cnn(Cc3ccc(F)cc3)c(=O)c2-c2ccc(F)cc2)cc1 [Example 20]	10%	9%	86%	33%	1 nM	153 to 154 °C	–	–	–	–	–	–	–	–	–	–	–	–	–	–
CC(C)(O)CCOc1c(-c2ccc(S(C)(=O)=O)cc2)cnn(-c2ccc(F)cc2)c1=O [Example 451, 2-(4-Fluorophenyl)-4-(3-hydroxy-3-methyl-1-butoxy)-5-[4-(methylsulfonyl)phenyl]-3(2H)-pyridazinone]	10%	–	–	–	150 nM	133 to 134 °C	470 nM	22400 nM	ED30 = 0.82	80.5%	0.7 mg/kg	29100 nM	470 nM	5.2 h	69 µM·h	3.43 µM	–	–	–	–
CC(C)(O)CCOc1c(-c2ccc(S(C)(=O)=O)cc2)cnn(-c2ccc(F)c(F)c2)c1=O [Example 471, 2-(3,4-Difluorophenyl)-4-(3-hydroxy-3-methyl-1-butoxy)-5-[4-(methylsulfonyl)phenyl]-3(2H)-pyridazinone]	–	–	–	–	40 nM	131 to 133 °C	490 nM	320 nM	–	–	0.9 mg/kg	–	–	–	–	–	3680 nM	41%	55.5%	85%
